Data: the supplement of paper PMC10627819

Assays:
[1] = tested on: B. subtilis 168; assay: fitness (endpoint OD595 vs no drug) (fraction); higher = more growth
Method in brief: (§1)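 Bacterial growth was followed in 384-well plates seeded at OD595 0.01, with 30 µl per well, or 55 µl for S. pneumoniae, in TSB, LB Lennox or CY at 37 °C. OD595 was read every 30 min for 14 h, and each reading had the first reading subtracted as background. Fitness is the background-corrected optical density at entry into stationary phase divided by the robust mean of the no-drug control wells. This ratio is capped at 1.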

[2] = tested on: S. pneumoniae D39V; assay: as above
Method in brief: as §1

O=C(O)[C@H]1/C(=C/CO)O[C@@H]2CC(=O)N21 [Clavulanic acid] + CO/N=C(\C(=O)N[C@@H]1C(=O)N2C(C(=O)O)=C(COC(N)=O)CS[C@H]12)c1ccco1 [Cefuroxime]
fitness, [1]
Details | first compound 1.5 µg/mL | first compound 3 µg/mL | first compound 6 µg/mL
partner 0.04875 µg/mL | 0.661 | 0.626 | 0.562
partner 0.0975 µg/mL | 0.651 | 0.607 | 0.542
partner 0.195 µg/mL | – | 0.345 | 0.359

fitness, [1], one replicate
Details | partner 0.39 µg/mL | partner 0.78 µg/mL | partner 1.562 µg/mL | partner 3.125 µg/mL | partner 6.25 µg/mL
first compound 1.5 µg/mL | 0.288 | 0.232 | 0.353 | 0.235 | 0.202
first compound 3 µg/mL | 0.0208 | 0.0871 | 0.319 | 0.276 | 0.238
first compound 6 µg/mL | 0.216 | 0.172 | 0.241 | 0.18 | 0.142

O=C(O)[C@H]1/C(=C/CO)O[C@@H]2CC(=O)N21 [Clavulanic acid] + CO[C@@H]1[C@@H](OC(N)=O)[C@@H](O)[C@H](Oc2ccc3c(O)c(NC(=O)c4ccc(O)c(CC=C(C)C)c4)c(=O)oc3c2C)OC1(C)C [Novobiocin]
fitness, [1]
Details | first compound 1.5 µg/mL | first compound 3 µg/mL | first compound 6 µg/mL
partner 0.0125 µg/mL | 0.932 | 0.895 | 0.759
partner 0.025 µg/mL | 0.935 | 0.89 | 0.727
partner 0.05 µg/mL | 0.951 | 0.914 | 0.798

fitness, [1], one replicate
Details | partner 0.1 µg/mL | partner 0.125 µg/mL | partner 0.2 µg/mL | partner 0.25 µg/mL | partner 0.5 µg/mL
first compound 1.5 µg/mL | 0.893 | 0.827 | 0.975 | 0.841 | 0.511
first compound 3 µg/mL | 0.937 | 0.815 | 0.989 | 0.774 | 0.385
first compound 6 µg/mL | 0.827 | 0.775 | 0.796 | 0.726 | 0.209

O=C(O)[C@H]1/C(=C/CO)O[C@@H]2CC(=O)N21 [Clavulanic acid] + CO[C@H]1/C=C/O[C@@]2(C)Oc3c(C)c(O)c4c(O)c(c(/C=N/N5CCN(C)CC5)c(O)c4c3C2=O)NC(=O)/C(C)=C\C=C\[C@H](C)[C@H](O)[C@@H](C)[C@@H](O)[C@@H](C)[C@H](OC(C)=O)[C@@H]1C [Rifampicin]
fitness, [2]
Details | first compound 0.5 µg/mL | first compound 1 µg/mL | first compound 2 µg/mL
partner 0.025 µg/mL | ≥ 1 | 0.919 | –
partner 0.1 µg/mL | – | 0.421 | 0.239

[2], partner 0.2 µg/mL, one replicate
Details | fitness
first compound 0.5 µg/mL | 0
first compound 1 µg/mL | 0
first compound 2 µg/mL | 0

O=C(O)[C@H]1/C(=C/CO)O[C@@H]2CC(=O)N21 [Clavulanic acid] + COc1cc(Cc2cnc(N)nc2N)cc(OC)c1OC [Trimethoprim]
fitness, [1], one replicate
Details | partner 0.1 µg/mL | partner 0.2 µg/mL | partner 0.4 µg/mL | partner 1 µg/mL | partner 2 µg/mL
first compound 1.5 µg/mL | 0.89 | 0.757 | 0.559 | 0.507 | 0.392
first compound 3 µg/mL | 0.853 | 0.693 | 0.537 | 0.455 | 0.388
first compound 6 µg/mL | 0.728 | 0.687 | 0.482 | 0.421 | 0.273

fitness, [1]
Details | first compound 1.5 µg/mL | first compound 3 µg/mL | first compound 6 µg/mL
partner 0.125 µg/mL | 0.647 | 0.618 | 0.55
partner 0.25 µg/mL | 0.511 | – | –
partner 0.5 µg/mL | 0.505 | 0.494 | 0.457
